Measurements published in patent US8735414B2 (priority 2009, dated 2014).

Tested on: not given
Test: not given
Conditions: not given

Compound	melting point [°C]
CCCn1c(-c2ccc(S(=O)(=O)NC(C)C)cn2)c(C#N)c2ccc(OC(F)F)cc21 [compound 3, 6-[3-cyano-6-(difluoromethoxy)-1-propyl-1H-indol-2-yl]-N-(propan-2-yl)pyridine-3-sulfonamide]	166 to 170
CC(C)NS(=O)(=O)c1ccc(-c2c(C#N)c3ccc(OC(F)F)cc3n2C2CCCC2)nc1 [compound 52, 6-[3-cyano-1-cyclopentyl-6-(difluoromethoxy)-1H-indol-2-yl]-N-(propan-2-yl)pyridine-3-sulfonamide]	157 to 158
CC(C)NS(=O)(=O)c1ccc(-c2c(C#N)c3ccc(OC(F)F)cc3n2C(C)C)nc1 [compound 1, 6-[3-cyano-6-(difluoromethoxy)-1-(propan-2-yl)-1H-indol-2-yl]-N-(propan-2-yl)pyridine-3-sulfonamide]	157 to 159
CC(C)(C)NS(=O)(=O)c1ccc(-c2c(C#N)c3ccc(OC(F)F)cc3n2C2CCC2)nc1 [compound 543, N-tert-butyl-6-[3-cyano-1-cyclobutyl-6-(difluoromethoxy)-1H-indol-2-yl]pyridine-3-sulfonamide]	178 to 180
CC(C)(CF)NS(=O)(=O)c1ccc(-c2c(C#N)c3ccc(OC(F)F)cc3n2C2CCC2)nc1 [compound 77, 6-[3-cyano-1-cyclobutyl-6-(difluoromethoxy)-1H-indol-2-yl]-N-(1-fluoro-2-methylpropan-2-yl)pyridine-3-sulfonamide]	171 to 178
N#Cc1c(-c2ccc(S(=O)(=O)NC3(C(F)(F)F)CC3)cn2)n(C2CCC2)c2cc(OC(F)F)ccc12 [compound 93, 6-[3-cyano-1-cyclobutyl-6-(difluoromethoxy)-1H-indol-2-yl]-N-[1-(trifluoromethyl)cyclopropyl]pyridine-3-sulfonamide]	182 to 187
C[C@H](NS(=O)(=O)c1ccc(-c2c(C#N)c3ccc(C4CC4)cc3n2C2CCC2)nc1)C(F)(F)F [compound 369, 6-(3-cyano-1-cyclobutyl-6-cyclopropyl-1H-indol-2-yl)-N-[(2S)-1,1,1-trifluoropropan-2-yl]pyridine-3-sulfonamide]	191 to 197
CC(C)NS(=O)(=O)c1ccc(-c2c(C#N)c3ccc(OC(F)F)cc3n2CC2CC2)nc1 [compound 13, 6-[3-cyano-1-(cyclopropylmethyl)-6-(difluoromethoxy)-1H-indol-2-yl]-N-(propan-2-yl)pyridine-3-sulfonamide]	154 to 156
N#Cc1c(-c2ccc(S(=O)(=O)NC(CF)CF)cn2)n(C2CCC2)c2cc(C3CC3)ccc12 [compound 35, 6-(3-cyano-1-cyclobutyl-6-cyclopropyl-1H-indol-2-yl)-N-(1,3-difluoropropan-2-yl)pyridine-3-sulfonamide]	175 to 178
CC(C)NS(=O)(=O)c1ccc(-c2c(C#N)c3ccc(C(F)F)cc3n2C2CCC2)nc1 [compound 333, 6-[3-cyano-1-cyclobutyl-6-(difluoromethyl)-1H-indol-2-yl]-N-(propan-2-yl)pyridine-3-sulfonamide]	212 to 220

Tested on: bicistronic HCV replicon (replicon RNA, GenBank Accession No. AJ242654)
Test: HCV Replicon Assay
Assay type: cell-based
Conditions: Hepatitis C virus, 72 h, read-out: Replicon IC50

Compound	IC50 [nM]
N#Cc1c(-c2ccc(S(=O)(=O)NC3CC(F)(F)C3)cn2)n(C2CCC2)c2ccc(Cl)cc12 [compound 243, 6-(5-chloro-3-cyano-1-cyclobutyl-1H-indol-2-yl)-N-(3,3-difluorocyclobutyl)pyridine-3-sulfonamide]	500 to 2000
COC(=O)c1c(-c2ccc(S(=O)(=O)NC(C)(C)C(F)(F)F)cn2)n(C2CCCC2)c2cc(C)c(F)cc12 [compound 754, methyl 1-cyclopentyl-5-fluoro-6-methyl-2-{5-[(1,1,1-trifluoro-2-methylpropan-2-yl)sulfamoyl]pyridin-2-yl}-1H-indole-3-carboxylate]	< 500
Cc1cc2c(cc1F)c(C#N)c(-c1ccc(S(=O)(=O)NC(C)(C)C(F)(F)F)cn1)n2C1CCOCC1 [compound 750, 6-[3-cyano-5-fluoro-6-methyl-1-(tetrahydro-2H-pyran-4-yl)-1H-indol-2-yl]-N-(1,1,1-trifluoro-2-methylpropan-2-yl)pyridine-3-sulfonamide]	< 500
CC(C)n1c(-c2ncc(S(=O)(=O)NC(CF)CF)cn2)c(C#N)c2ccc(Cl)cc21 [compound 257, 2-[6-chloro-3-cyano-1-(propan-2-yl)-1H-indol-2-yl]-N-(1,3-difluoropropan-2-yl)pyrimidine-5-sulfonamide]	500 to 2000
Cc1cc2c(cc1F)c(C#N)c(-c1ccc(S(=O)(=O)NC3(C(F)(F)F)CC3)cn1)n2C1CCCC1 [compound 644, 6-(3-cyano-1-cyclopentyl-5-fluoro-6-methyl-1H-indol-2-yl)-N-[1-(trifluoromethyl)cyclopropyl]pyridine-3-sulfonamide]	< 500
Cc1cc2c(cc1F)c(C#N)c(-c1ccc(S(=O)(=O)NC3(C(F)(F)F)CC3)cn1)n2C1CCCCC1 [compound 856, 6-(3-cyano-1-cyclohexyl-5-fluoro-6-methyl-1H-indol-2-yl)-N-[1-(trifluoromethyl)cyclopropyl]pyridine-3-sulfonamide]	< 500
CC(C)NS(=O)(=O)c1ccc(-c2c(C#N)c3ccc(C4CC4)cc3n2C2CCC2)cn1 [compound 27, 5-(3-cyano-1-cyclobutyl-6-cyclopropyl-1H-indol-2-yl)-N-(propan-2-yl)pyridine-2-sulfonamide]	< 500
C[C@H](NS(=O)(=O)c1ccc(-c2c(C#N)c3ccc(OC(F)(F)F)cc3n2C2CCC2)nc1)C1CC1 [compound 152, 6-[3-cyano-1-cyclobutyl-6-(trifluoromethoxy)-1H-indol-2-yl]-N-[(1S)-1-cyclopropylethyl]pyridine-3-sulfonamide]	< 500
Cc1cc2c(cc1F)c(C#N)c(-c1ccc(S(=O)(=O)NC3CC3)cn1)n2C1CCC1 [compound 652, 6-(3-cyano-1-cyclobutyl-5-fluoro-6-methyl-1H-indol-2-yl)-N-cyclopropylpyridine-3-sulfonamide]	< 500
C[C@H](NS(=O)(=O)c1ccc(-c2c(C#N)c3cc(F)c(OC(F)F)cc3n2-c2ncccn2)nc1)C(F)(F)F [compound 682, 6-[3-cyano-6-(difluoromethoxy)-5-fluoro-1-(pyrimidin-2-yl)-1H-indol-2-yl]-N-[(2S)-1,1,1-trifluoropropan-2-yl]pyridine-3-sulfonamide]	< 500
C[C@H](N(C(F)F)S(=O)(=O)c1ccc(-c2c(C#N)c3cc(F)c(OC(F)F)cc3n2C2CCC2)nc1)C(F)(F)F [compound 712, 6-[3-cyano-1-cyclobutyl-6-(difluoromethoxy)-5-fluoro-1H-indol-2-yl]-N-(difluoromethyl)-N-[(2S)-1,1,1-trifluoropropan-2-yl]pyridine-3-sulfonamide]	2000 to 5000
CCc1cc2c(cc1F)c(C#N)c(-c1ccc(S(=O)(=O)N[C@@H](C)C(F)(F)F)cn1)n2-c1ccc(C)cc1 [compound 1004, 6-[3-cyano-6-ethyl-5-fluoro-1-(4-methylphenyl)-1H-indol-2-yl]-N-[(2S)-1,1,1-trifluoropropan-2-yl]pyridine-3-sulfonamide]	< 500
CCc1cc2c(cc1F)c(C(N)=O)c(-c1ccc(S(=O)(=O)N[C@@H](C)C(F)(F)F)cn1)n2-c1ccncn1 [compound 1041, 6-ethyl-5-fluoro-1-(pyrimidin-4-yl)-2-(5-{[(2S)-1,1,1-trifluoropropan-2-yl]sulfamoyl}pyridin-2-yl)-1H-indole-3-carboxamide]	< 500
CC1(NS(=O)(=O)c2ccc(-c3c(C#N)c4cc(CC(F)F)ccc4n3C3CCC3)nc2)CC1 [compound 696, 6-[3-cyano-1-cyclobutyl-5-(2,2-difluoroethyl)-1H-indol-2-yl]-N-(1-methylcyclopropyl)pyridine-3-sulfonamide]	< 500
Cc1cc2c(cc1F)c(C#N)c(-c1ccc(S(=O)(=O)N[C@@H](C)C(F)(F)F)cn1)n2-c1ncco1 [compound 1073, 6-[3-cyano-5-fluoro-6-methyl-1-(1,3-oxazol-2-yl)-1H-indol-2-yl]-N-[(2S)-1,1,1-trifluoropropan-2-yl]pyridine-3-sulfonamide]	< 500
Cc1cc2c(cc1F)c(C#N)c(-c1ccc(S(=O)(=O)N[C@H](C)C(F)(F)F)cn1)n2-c1ncccn1 [compound 695, 6-[3-cyano-5-fluoro-6-methyl-1-(pyrimidin-2-yl)-1H-indol-2-yl]-N-[(2R)-1,1,1-trifluoropropan-2-yl]pyridine-3-sulfonamide]	< 500
CCc1cc2c(cc1F)c(C#N)c(-c1ccc(S(=O)(=O)NC3(C(F)(F)F)CC3)cn1)n2-c1ncccn1 [compound 864, 6-[3-cyano-6-ethyl-5-fluoro-1-(pyrimidin-2-yl)-1H-indol-2-yl]-N-[1-(trifluoromethyl)cyclopropyl]pyridine-3-sulfonamide]	< 500
Cc1cc2c(cc1F)c(C#N)c(-c1ccc(S(=O)(=O)N[C@@H](C)C(F)(F)F)cn1)n2-c1ccc(F)cn1 [compound 742, 6-[3-cyano-5-fluoro-1-(5-fluoropyridin-2-yl)-6-methyl-1H-indol-2-yl]-N-[(2S)-1,1,1-trifluoropropan-2-yl]pyridine-3-sulfonamide]	< 500
CC(C)NS(=O)(=O)c1ccc(-c2c(C#N)c3ccc(C4CC4)cc3n2C2CC2)nc1 [compound 109, 6-(3-cyano-1,6-dicyclopropyl-1H-indol-2-yl)-N-(propan-2-yl)pyridine-3-sulfonamide]	< 500
CCc1cc2c(cc1F)c(C#N)c(-c1ccc(S(=O)(=O)N[C@@H](C)C(F)(F)F)cn1)n2-c1ccccc1F [compound 1075, 6-[3-cyano-6-ethyl-5-fluoro-1-(2-fluorophenyl)-1H-indol-2-yl]-N-[(2S)-1,1,1-trifluoropropan-2-yl]pyridine-3-sulfonamide]	< 500
CC(C)NS(=O)(=O)c1cnc(-c2c(C#N)c3ccc(CC(F)F)cc3n2CC2CC2)nc1 [compound 620, 2-[3-cyano-1-(cyclopropylmethyl)-6-(2,2-difluoroethyl)-1H-indol-2-yl]-N-(propan-2-yl)pyrimidine-5-sulfonamide]	< 500
CCc1cc2c(cc1F)c(C(N)=O)c(-c1ccc(S(=O)(=O)N[C@@H](C)C(F)(F)F)cn1)n2-c1cccnc1 [compound 1040, 6-ethyl-5-fluoro-1-(pyridin-3-yl)-2-(5-{[(2S)-1,1,1-trifluoropropan-2-yl]sulfamoyl}pyridin-2-yl)-1H-indole-3-carboxamide]	< 500
